{
  "source": "patent US20180050114A1",
  "about": "“HER2 APTAMER-ANTICANCER DRUG COMPLEX FOR CANCER CELL CHEMOTHERAPY” (priority 2016, published 2018)",
  "key": {"[1]": {"system": "HER2-positive breast cancer BT474 cell line and HER2-negative breast cancer T47D cell line, co-cultured 1:1", "assay": "p-His3 (mitotic arrest marker) ICC in co-cultured HER2-positive and HER2-negative cells", "format": "cell-based", "conditions": "for expression of p-His3 depending on HER2 expression (confocal images): BT474/T47D co-culture 1:1, 10 nM, 24 hr (FIG. 3)", "experimental": "(2) HER2 and a mitotic arrest marker, namely phospho-Histone H3 (p-His3), were stained with ICC, and the HER2-positive breast cancer BT474 cell line and the HER2-negative breast cancer T47D cell line, the nuclei of which were stained with DAPI, were co-cultured at a ratio of 1:1 and treated with a control (DMSO), DM1, and Aptamer-DM1 at a concentration of 10 nM for 24 hr. Thereafter, the nuclei (blue), p-His3 (green), and HER2 (red) were imaged using a confocal microscope. The number of cells in which p-His3 was detected was quantified based on whether HER2 was expressed or not."}, "HER2": {"biological_target": "T1, HER2 (Homo sapiens, UniProt P04626)", "T1 construct": "endogenous in cells; host or cells: BT474 breast cancer cells", "assay": "Confocal ICC of HER2 localisation / cellular internalization in BT474 cells", "format": "cell-based", "conditions": "BT474 cell line, 10 nM, 48 hr, confocal microscope (FIGS. 2A to 2L)", "experimental": "(2) The cells cultured on 8-well chamber slides were fixed with 4% paraformaldehyde, washed with PBS, and cultured for 10 min with 0.2% Triton X-100. Thereafter, the cells were cultured overnight at 4° C. with primary antibodies in an antibody dilution buffer and then cultured at room temperature for 2 hr with fluorescence-conjugated secondary antibodies. Thereafter, the cells were mounted on ProLong Gold Antifade Reagent containing DAPI (4′,6′-diamidine-2′-phenylindole dihydrochloride). Particularly, each of the cultured breast cancer cell lines was subjected to immunocytochemistry (ICC) using a HER2 antibody, the nucleus thereof was stained with DAPI, and HER2 (red) and nucleus (blue) regions were imaged using a confocal microscope.\n(1) ICC was performed using the HER2 antibody."}, "[2]": {"system": "HER2-positive breast cancer cell lines (SKBR3, BT474, MDA-MB-453)", "assay": "Apoptosis rate (sub-G1%) by PI DNA content flow cytometry, HER2-positive cell lines", "format": "cell-based", "conditions": "10 nM, 72 hr (FIG. 5); for apoptosis rate (sub-G1%): HER2-positive cell lines SKBR3, BT474, MDA-MB-453", "experimental": "(§1) Thereafter, the apoptosis rate (sub-G1%) of cancer cells was measured through DNA content analysis using flow cytometry.\n(§2) (2) Typically, the cell cycle includes, depending on the amount of DNA in cells, G1 (cell growth phase)-S (cell replication phase)-G2/M (cell mitotic phase). […] The results of apoptosis are represented by the percentage of sub-G1 in the cell cycle."}, "[3]": {"system": "HER2-negative breast cancer cell lines (MCF7, T47D)", "assay": "Apoptosis rate (sub-G1%) by PI DNA content flow cytometry, HER2-negative cell lines", "format": "cell-based", "conditions": "10 nM, 72 hr (FIG. 5)", "experimental": "as §1, §2"}, "[4]": {"system": "HER2-positive BT474 tumors (compared with HER2-negative T47D tumors)", "assay": "Breast cancer animal model, tumor volume and TUNEL assay", "format": "in vivo, BALB/c nude mice", "conditions": "1 mg/kg, 2 mg/kg intraperitoneally three times a week", "experimental": "(1) To the fourth breast fat pads of immunodeficient 6-week-old female BALB/c nude mice, HER2-positive BT474 cancer cells (3×10^6 cells) and HER2-negative T47D cancer cells (3×10^6 cells) were transplanted, after which Aptamer-DM1 (1 mg/kg, 2 mg/kg, body weight) was intraperitoneally administered three times a week. Then, the tumor volume was measured for 18 days. The tumor volume (V) was measured using a caliper and calculated according to V=(length×width^2)/2. In the TUNEL assay, the tumors were removed from the mice, fixed with 10% neutral-buffered formalin and embedded in paraffin. The 4 μm thick tissue section was mounted on a positively charged glass slide, deparaffinized with xylene, and […] through a graded alcohol series. After antigen retrieval, the above tissue section was boiled in a citric acid buffer (pH 6.0) and immunofluorescence was performed. In situ TUNEL was performed on the above tissue section using a TUNEL kit (Roche Applied Sciences, Penzberg, GER), and the images thereof were obtained using a confocal scanning microscope."}, "JIMT-1 cells": {"system": "JIMT-1 cells", "assay": "Drug-resistant disease animal model, JIMT-1 tumors (tumor volume, bioluminescence imaging)", "format": "in vivo, BALB/c nude mice", "experimental": "(§3) Thereafter, the tumor volume was measured for 15 days. The results are shown in FIG. 11, and the results of in-vivo bioluminescence imaging of JIMT-1-transplanted mice are shown in FIG. 12. In-vivo bioluminescence imaging was performed in a manner in which the mice were anesthetized and administered with 150 mg/kg of luciferin, after which the tumor size and the transition state were measured using a bioluminescence imaging system."}, "[5]": {"system": "Trastuzumab-resistant BT474 cell line (BT474-Tra)", "assay": "Western blot of HER family / AKT signalling in Trastuzumab-resistant BT474 cells", "format": "cell-based", "conditions": "10 nM", "experimental": "For the BT474 and BT474-Tra cell lines, the expression of p185HER2, p95HER2, p-HER2, p-p95HER2, HERS, p-HER3, total-AKT, p-AKT, and PARP was analyzed via Western blot. Cell viability was measured using a CellTiter 96* Aqueous One Solution Cell Proliferation Assay [MTS, 3-(4,5-dimethylthiazol-2-yl)-5-(3-carboxymethoxyphenyl)-2-(4-sulfophenyl)-2H-tetrazolium], and the amount of produced formazan was determined by measuring absorbance at 490 nm using a Spectramax Plus 384 microplate analyzer. In the Western blot, the above cells were lysed in a lysis buffer (30 mM NaCl, 0.5% Triton X-100, 50 mM Tris-HCl; pH 7.4) containing phosphatase and a protease inhibitor, and the supernatant was collected and then the protein was […] using a Bradford protein assay kit. 30 μg of the protein was subjected to SDS-PAGE and electrophoresed with a nitrocellulose membrane. The membrane was cultured overnight at 4° C. with primary antibodies diluted in bovine serum albumin (BSA) and then cultured with horseradish peroxidase (HRP)-conjugated rabbit IgG (1:3000-1:10,000). Signal intensity was measured using an Enhanced Chemiluminescence Kit and an X-ray film, and quantified with AlphaEaseFC software."}, "JIMT-1 cell line": {"system": "JIMT-1 cell line", "assay": "Western blot of HER family / AKT signalling in JIMT-1 cells", "format": "cell-based", "conditions": "JIMT-1, 10 nM, 72 hr, compared to control, DM1 and Aptamer (FIG. 10)"}, "BT474-Tra cells": {"system": "BT474-Tra cells", "assay": "Drug-resistant disease animal model, BT474-Tra tumors", "format": "in vivo, BALB/c nude mice", "conditions": "BT474-Tra transplanted mice, 1 mg/kg intraperitoneally, 15 days (FIG. 11)", "experimental": "as §3"}, "[6]": {"conditions": "BT474/T47D co-culture, 10 nM, 24 hr (FIG. 4)"}},
  "note": "{SH} = thiol (OH replaced by SH), used for disulfide linkage to DM1",
  "data": [
    {"molecule": "COc1cc2cc(c1Cl)N(C)C(=O)C[C@H](OC(=O)[C@H](C)N(C)C(C)=O)[C@]1(C)O[C@H]1[C@H](C)[C@@H]1C[C@@](O)(NC(=O)O1)[C@H](OC)/C=C/C=C(\\C)C2", "note": "[DM1, maytansine, reference compound]", "values": [
      {"measurement": "expression of p-His3 depending on HER2 expression (confocal images)", "setting": "[1]", "value": "found regardless of whether HER2 was expressed or not"},
      {"measurement": "proportions of cells in which p-His3 was detected, HER2-positive cell line versus HER2-negative cell line", "setting": "[1]; [6]", "value": "not significantly different"},
      {"measurement": "HER2 localisation (cell membrane expression vs cellular internalization)", "setting": "HER2", "value": "expression of HER2 on the cell membrane was observed"},
      {"measurement": "apoptosis rate (sub-G1%)", "setting": "[2]", "value": "relatively high apoptosis rate"},
      {"measurement": "apoptosis rate (sub-G1%)", "setting": "[3]", "value": "relatively high apoptosis rate"}
    ]},
    {"molecule": "Aptamer-DM1: HER2-binding RNA aptamer (SEQ ID NO:1, 3′ thiol, 2′-O-methyl) linked via disulfide bonding to anticancer drug DM1 (GGGAGGACGAUGCGGGACUGUACGGGGCUCUGUGCAGACGACUCGCCCGA; 3' {SH}, sugars by position and backbone not given here; 2'-O-methyl modified, 3' thiol disulfide-linked to DM1)", "values": [
      {"measurement": "expression of p-His3 depending on HER2 expression (confocal images)", "setting": "[1]", "value": "detected only in the cells in which HER2 was expressed"},
      {"measurement": "proportion of cells in which p-His3 was detected, HER2-negative cell line", "setting": "[1]; [6]", "value": "considerably decreased"},
      {"measurement": "proportion of cells in which p-His3 was detected, HER2-positive cell line", "setting": "[1]; [6]", "value": "remarkably increased"},
      {"measurement": "HER2 localisation (cell membrane expression vs cellular internalization)", "setting": "HER2", "value": "cellular internalization of HER2 from the cell membrane was observed"},
      {"measurement": "apoptosis rate (sub-G1%)", "setting": "[2]", "value": "high"},
      {"measurement": "apoptosis rate compared to the DM1-treated group", "setting": "[2]; HER2-positive cell lines", "value": "high apoptosis rate in the HER2-positive cell lines compared to the DM1-treated group"},
      {"measurement": "tumor growth (tumor volume)", "setting": "[4]; 18 days, BT474 and T47D transplanted tumors (FIG. 6)", "value": "significantly decreased only the growth of HER2-positive BT474 tumors"},
      {"measurement": "apoptosis in tumors (TUNEL assay)", "setting": "[4]; BT474 and T47D tumors (FIG. 7)", "value": "effectively induced apoptosis only in the HER2-positive BT474 tumors"},
      {"measurement": "luciferin intensity (in-vivo bioluminescence imaging)", "setting": "JIMT-1 cells; JIMT-1-transplanted mice, 1 mg/kg intraperitoneally (FIG. 12)", "value": "remarkably decreased"},
      {"measurement": "tumor volume", "setting": "JIMT-1 cells; JIMT-1 transplanted mice, 1 mg/kg intraperitoneally, 15 days (FIG. 11)", "value": "significantly reduced the tumor volume"},
      {"measurement": "expression of p95HER2", "setting": "[5]; BT474-Tra cells, 72 hr (FIG. 10)", "value": "strongly inhibited"},
      {"measurement": "expression of full-length p185HER2, phospho-HER2 (Tyr1221), HER3, phospho-HER3, AKT and phospho-Akt (Ser 43)", "setting": "[5]; BT474-Tra, 72 hr, compared to control, DM1 and Aptamer (FIG. 10)", "value": "significantly reduced"},
      {"measurement": "expression of full-length p185HER2, phospho-HER2 (Tyr1221), HER3, phospho-HER3, AKT and phospho-Akt (Ser 43)", "setting": "JIMT-1 cell line", "value": "significantly reduced"},
      {"measurement": "tumor volume", "setting": "BT474-Tra cells", "value": "significantly reduced the tumor volume"},
      {"measurement": "apoptosis rate (sub-G1%)", "setting": "[3]", "value": "low"}
    ]}
  ]
}
